Assay results from patent publication US7713696B2, “Genetic markers for prognosis of antifolate treatment efficacy” (Academisch Zeikenhuis Leiden H.O.D.N. Lumc, priority 2006, dated 2010).

Tested on: recent-onset RA patients
Assay: Clinical response to methotrexate monotherapy (DAS) in genotyped patients of the BeSt trial
Assay type: in vivo, human
Conditions: for Good clinical response at six months, number of patients / Good clinical response at six months, percentage of patients: DAS≦2.4
From the text: The 247 patients enrolled in the study was a sub-cohort of 508 patients participating in the BeSt trial (25). Inclusion criteria for this trial were fulfilment of the American College of Rheumatology (ACR) 1987 criteria, age of 18 years or older, a disease duration of less than 2 years. All patients had to have an active disease defined as ≧6/66 swollen joints and ≧6/68 tender joints and either an ESR ≧28 mm/hr or a Visual Analogue Scale (VAS) for global health ≦20 mm (on a scale of 0-100, 0=worst, 100=best).
The BeSt trial is a randomized, multi-centre, single-blinded, clinical study comparing the clinical efficacy of four different treatment strategies in early rheumatoid arthritis; sequential monotherapy (n=126 starting with methotrexate), step-up to combination therapy with sulphasalazine (n=121 starting with methotrexate), initial combination therapy with methotrexate, sulphasalazine and a high tapered dose of prednisolone (n=133) or initial biologic therapy with infliximab and methotrexate (n=128). In the present study, only patients allocated to initial single use of methotrexate were selected (n=247).
The primary objective of treatment in the BeSt study was achieving good clinical response as defined by the DAS≦2.4 (26-28). The DAS is a validated composite outcome measure consisting of the Ritchie articular index (RAI), the number of swollen joints (SJC, out of 44), general well being as indicated by the patient on a visual analogue scale (VAS), and the Erythrocyte Sedimentation Rate (ESR). A research nurse who remained blinded for the allocated treatment group scored the DAS every three months.
All selected patients started with oral methotrexate 7.5 mg weekly, increased to 15 mg weekly after 4 weeks, combined with folic acid (1 mg per day). In case of insufficient clinical response at three months of follow-up (DAS>2.4), the dosage was increased stepwise to 25 mg weekly, either orally or parenterally as decided by the rheumatologist. If the clinical response remained insufficient with methotrexate 25 mg weekly, patients were treated according to the next step of the BeSt protocol; patients with methotrexate sequential monotherapy switched to sulphasalazine 1000 mg twice daily; patients with initial step-up combination therapy, sulphasalazine 1000 mg twice daily was added to methotrexate. Concomitant therapies with nonsteroidal anti-inflammatory drugs (NSAIDs), as well as intra-articular injections with corticosteroids, were allowed for all treatment groups. For current analysis, clinical data for the first six months of follow-up were used, representing methotrexate treatment only.
“Responders” were defined as patients with DAS ≦2.4 (good clinical response) based on EULAR response criteria (26-28) and ‘non-responders ’ as patients with DAS >2.4 at six months of follow up.
Differences in baseline characteristics were analysed by Student's t-test for continuous variables or Chi-square test for dichotomous variables. Differences in genotype distribution for response and toxicity were tested by 3 by 2 cross tabs for each genotype, and by 2 by 2 cross tabs for carriers versus non-carriers analysis with the two-sided Chi-square test. We used binary logistic analysis in case of differences in genotype distribution, to calculate odds ratios for achieving good response or experiencing adverse drug events. Age and gender were identified as possible confounders and were used as covariates in all regression analyses. The primary efficacy endpoint was good clinical response at six months (DAS≦2.4). DAS good clinical response status required patients to be present at a given time point; no values were carried forward. Secondary endpoints were good clinical improvement defined as change in DAS>1.2 (ΔDAS>1.2) and moderate clinical improvement defined as change in DAS>0.6 (ΔDAS>0.6). […]

CN(Cc1cnc2nc(N)nc(N)c2n1)c1ccc(C(=O)N[C@@H](CCC(=O)O)C(=O)O)cc1 [methotrexate]
Good clinical response, Methotrexate 15 mg weekly, number of responders/patients (AMPD1 CC genotype, six months): 25/36
Good clinical response, Methotrexate 15 mg weekly, percentage (AMPD1 CC genotype, six months): (69%)
Good clinical response, Methotrexate 25 mg weekly, number of responders/patients (AMPD1 CC genotype, six months): 30/98
Good clinical response, Methotrexate 25 mg weekly, percentage (AMPD1 CC genotype, six months): (31%)
Good clinical response at six months, number of patients (AMPD1 CC genotype): 57
Good clinical response at six months, percentage of patients (AMPD1 CC genotype): (38%)
good clinical response percentage at 6 months (AMPD1 CC genotyped patients): 42%
Good clinical response, Methotrexate 15 mg weekly, number of responders/patients (AMPD1 CT genotype, six months): 15/15
Good clinical response, Methotrexate 15 mg weekly, percentage (AMPD1 CT genotype, six months): (100%)
Good clinical response, Methotrexate 25 mg weekly, number of responders/patients (AMPD1 CT genotype, six months): 13/29
Good clinical response, Methotrexate 25 mg weekly, percentage (AMPD1 CT genotype, six months): (45%)
Good clinical response at six months, number of patients (AMPD1 CT genotype): 28
Good clinical response at six months, percentage of patients (AMPD1 CT genotype): (56%)
percentage of good clinical response at six months (AMPD1 T-allele and ATIC CC (n=22)): 68
percentage of good clinical response at six months (AMPD1 T-allele and ITPA CC (n=41)): 63
times more likely to achieve good clinical response (AMPD1 T-allele carriers compared to AMPD1 CC, six months): 2.1 times
good clinical response percentage at 6 months (AMPD1 T-allelic carriers): 60%
Good clinical response, Methotrexate 15 mg weekly, number of responders/patients (AMPD1 TT genotype, six months): 1/1
Good clinical response, Methotrexate 15 mg weekly, percentage (AMPD1 TT genotype, six months): (100%)
Good clinical response, Methotrexate 25 mg weekly, number of responders/patients (AMPD1 TT genotype, six months): 0/2
Good clinical response, Methotrexate 25 mg weekly, percentage (AMPD1 TT genotype, six months): (0%)
Good clinical response at six months, number of patients (AMPD1 TT genotype): 1
Good clinical response at six months, percentage of patients (AMPD1 TT genotype): (33%)
percentage of good clinical response at six months (ATIC CC and ITPA CC (n=82)): 56
patients in remission (DAS <1.6) at one-year of follow-up (ATIC CC genotype (n=97)): 35%
Good clinical response, Methotrexate 15 mg weekly, number of responders/patients (ATIC CC genotype, six months): 22/25
Good clinical response, Methotrexate 15 mg weekly, percentage (ATIC CC genotype, six months): (88%)
Good clinical response, Methotrexate 25 mg weekly, number of responders/patients (ATIC CC genotype, six months): 28/61
Good clinical response, Methotrexate 25 mg weekly, percentage (ATIC CC genotype, six months): (46%)
Good clinical response at six months, number of patients (ATIC CC genotype): 51
Good clinical response at six months, percentage of patients (ATIC CC genotype): (53%)
good clinical response percentage at 6 months (ATIC CC patients): 58%
Good clinical response, Methotrexate 15 mg weekly, number of responders/patients (ATIC CG genotype, six months): 15/22
Good clinical response, Methotrexate 15 mg weekly, percentage (ATIC CG genotype, six months): (68%)
Good clinical response, Methotrexate 25 mg weekly, number of responders/patients (ATIC CG genotype, six months): 14/60
Good clinical response, Methotrexate 25 mg weekly, percentage (ATIC CG genotype, six months): (23%)
Good clinical response at six months, number of patients (ATIC CG genotype): 30
Good clinical response at six months, percentage of patients (ATIC CG genotype): (33%)
good clinical response percentage at 6 months (ATIC G-allelic carriers): 37%
Good clinical response, Methotrexate 15 mg weekly, number of responders/patients (ATIC GG genotype, six months): 4/5
Good clinical response, Methotrexate 15 mg weekly, percentage (ATIC GG genotype, six months): (80%)
Good clinical response, Methotrexate 25 mg weekly, number of responders/patients (ATIC GG genotype, six months): 2/9
Good clinical response, Methotrexate 25 mg weekly, percentage (ATIC GG genotype, six months): (22%)
Good clinical response at six months, number of patients (ATIC GG genotype): 6
Good clinical response at six months, percentage of patients (ATIC GG genotype): (38%)
good clinical response percentage at 6 months (ITPA A-allelic carriers): 26%
Good clinical response, Methotrexate 15 mg weekly, number of responders/patients (ITPA CA genotype, six months): 3/5
